Measured values from PubChem BioAssay (NCI).
Several values for one entry are separate records, joined by “and”; a condition that tells them apart may be missing. Equal values may be shown once.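 In this assay, cells in 96-well plates receive the compound at five concentrations for 48 hours. Endpoints are linearly interpolated between the surrounding concentrations. GI50 is the concentration that inhibits growth by half. TGI is the concentration that stops growth completely.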

Tests used:
Experiment in all cases: growth of human tumour cells (NCI), 48 h
EKVX NSCLC = tested on: EKVX NSCLC
HOP-92 NSCLC = tested on: HOP-92 NSCLC
MDA-MB-435 = tested on: MDA-MB-435
MOLT-4 leukemia = tested on: MOLT-4 leukemia
NCI-H226 lung = tested on: NCI-H226 lung
RXF 393 renal = tested on: RXF 393 renal
SK-MEL-5 melanoma = tested on: SK-MEL-5 melanoma
SR leukemia = tested on: SR leukemia
TK-10 renal = tested on: TK-10 renal
UO-31 renal = tested on: UO-31 renal

Row | SMILES | GI50 (EKVX NSCLC) | TGI (EKVX NSCLC) | GI50 (HOP-92 NSCLC) | TGI (HOP-92 NSCLC) | GI50 (MDA-MB-435) | TGI (MDA-MB-435) | GI50 (MOLT-4 leukemia) | TGI (MOLT-4 leukemia) | GI50 (NCI-H226 lung) | TGI (NCI-H226 lung) | GI50 (RXF 393 renal) | TGI (RXF 393 renal) | GI50 (SK-MEL-5 melanoma) | TGI (SK-MEL-5 melanoma) | GI50 (SR leukemia) | TGI (SR leukemia) | GI50 (TK-10 renal) | GI50 (UO-31 renal) | TGI (UO-31 renal) | TGI (TK-10 renal)
1 | COc1ccc(Cn2cc(Cn3c(=O)c(-c4nc5ccccc5[nH]4)cc4ccccc43)nn2)c(OC)c1OC | 0.904 µM and 0.605 µM | 50 µM and > 100 µM | 0.48 µM and 0.39 µM | 1.92 µM and 9.69 µM | 0.0821 µM and 0.0453 µM | 0.186 µM and 0.17 µM | 0.468 µM | > 100 µM | 0.338 µM | > 100 µM | 0.129 µM | 0.49 µM | 0.307 µM and 0.274 µM | 1.04 µM and 1.45 µM | 0.291 µM | > 100 µM | 0.572 µM and 1.02 µM | 0.576 µM and 0.749 µM | 1.78 µM and 4.63 µM | –
2 | CN1CCN(c2cc(Nc3cc(C4CC4)[nH]n3)nc(Nc3ccc(CC(=O)NCc4cccc(F)c4)cc3)n2)CC1 | 3.41 µM | 32.4 µM | 0.288 µM | 4.8 µM | 0.44 µM | 2.63 µM | 0.248 µM | 19.8 µM | 0.534 µM | 10.9 µM | 0.404 µM | 1.71 µM | 1.42 µM | 3.08 µM | 0.293 µM | > 20.4 µM | 2.92 µM | 1.69 µM | 4.73 µM | 16.1 µM
3 | COc1cc(/C=C/C(=O)c2cc(OC)c(OC)c(OC)c2)cc(OC)c1OC | 2.63 µM | 21.5 µM | 2.53 µM | 20.5 µM | 2.28 µM | 8.11 µM | 2.8 µM | 48.6 µM | 6.36 µM | 87.4 µM | 2.81 µM | 11.4 µM | 8.33 µM | 21.1 µM | 1.46 µM | 8.41 µM | 4.42 µM | 2.05 µM | 12.1 µM | 59.2 µM
4 | COc1ccc2sc3c(NCCCNCCO)nc4ccccc4c3c(=O)c2c1 | 1.45 µM | 2.94 µM | 1.35 µM | 6.74 µM | 1.61 µM | 3.01 µM | 1.93 µM | 3.81 µM | 2.09 µM | 3.75 µM | 1.31 µM | 2.7 µM | 1.76 µM | 3.18 µM | 1.97 µM | 5.61 µM | 1.83 µM | 1.56 µM | 2.99 µM | 3.38 µM
5 | Oc1ccc(-c2nc3ccc4[nH]ncc4c3c3c2CCCC3)c2cccnc12 | 0.329 µM | 2.24 µM | 0.11 µM | 0.794 µM | 0.148 µM | 2.77 µM | 0.393 µM | 12.8 µM | 1.22 µM | 5.79 µM | 0.266 µM | 2.44 µM | 0.597 µM | 1.56 µM | 0.12 µM | 7.79 µM | 0.496 µM | 0.128 µM | 0.934 µM | 7.01 µM
6 | Clc1ccc(-c2cn(-c3ccccc3)c(-c3ccccc3)n2)c(Cl)c1 | > 18.5 µM | > 50 µM | 11.7 µM | > 50 µM | 1.69 µM | 10.1 µM | > 20.5 µM | > 50 µM | > 26 µM | > 50 µM | 2.11 µM | 11.9 µM | 48.5 µM | > 50 µM | 1.05 µM | 4.01 µM | 1.14 µM | 10.2 µM | > 50 µM | 2.17 µM
7 | COC(=O)[C@H](Cc1ccccc1)NC(=O)[C@@H](OC)[C@@H]1Cc2cc3cc(OC4CC(OC5CC(O)C(O)C(C)O5)C(O)C(C)O4)c(C)c(O)c3c(O)c2C(=O)[C@H]1OC1CC(OC2CC(OC3CC(C)(O)C(O)C(C)O3)C(O)C(C)O2)C(O)C(C)O1 (some centres undefined) | 0.0393 µM | > 14.3 µM | 0.00451 µM | 0.202 µM | 0.0182 µM | 0.0642 µM | 0.017 µM | 0.161 µM | 0.018 µM | 0.0741 µM | 0.0046 µM | 0.0252 µM | 0.00691 µM | 0.0357 µM | 0.00736 µM | 1.04 µM | 0.0439 µM | 0.0343 µM | 0.332 µM | > 14.3 µM
8 | C#CC#CC#CC#CC#CC#CC#CC#CCC1OC[C@H](COC(=O)O[C@@H](C(=O)O[C@H]2C[C@@]3(O)[C@@H](OC(=O)c4ccccc4)[C@@H]4[C@]5(OC(C)=O)CO[C@@H]5C[C@H](O)[C@@]4(C)C(=O)[C@H](OC(C)=O)C(=C2C)C3(C)C)[C@@H](NC(=O)c2ccccc2)c2ccccc2)O1 (some centres undefined) | > 33.3 µM | > 33.3 µM | > 18.5 µM | > 33.3 µM | 0.044 µM | 0.109 µM | 0.443 µM | > 33.3 µM | > 33.3 µM | > 33.3 µM | 1.25 µM | > 15.3 µM | 1.47 µM | > 33.3 µM | 0.182 µM | > 33.3 µM | > 21.5 µM | > 33.3 µM | > 33.3 µM | > 33.3 µM
9 | CC(C)(C)c1nnc2n(c1=O)N=CC(c1ccc(Br)cc1)S2 (centres undefined) | 22.7 µM | 66.7 µM | 40.9 µM | > 100 µM | 27.9 µM | 78.7 µM | 31.5 µM | > 100 µM | 21.4 µM | 51 µM | 23.6 µM | 82.5 µM | 18.6 µM | 38.3 µM | 24.2 µM | 80.7 µM | 34.7 µM | 20.7 µM | 47.4 µM | > 100 µM
10 | CC1(C)CC[C@]2(C(=O)O)CC[C@]3(C)[C@H](CC[C@@H]4[C@@]5(C)CCC(=O)C(C)(C)[C@@H]5CC[C@]43C)[C@H]2[C@H]1OC(=O)C(F)(F)F | 14.5 µM | 30.5 µM | 8.08 µM | 22.6 µM | 10.6 µM | 26.9 µM | 4.22 µM | 22.5 µM | 13.5 µM | 34 µM | 11.1 µM | 23.8 µM | 8.11 µM | 20.6 µM | 3.75 µM | 33.8 µM | 16.9 µM | 13.7 µM | 27 µM | 31.8 µM
11 | CC(C)(C)n1cc(-c2ccnc(NCCNS(=O)(=O)c3cccc4ccccc34)c2)c(-c2cccc(F)c2)n1 | 17.2 µM | > 100 µM | 2.74 µM | 21.2 µM | 19.1 µM | 38.7 µM | 10 µM | > 100 µM | 12.2 µM | 43.4 µM | 12.4 µM | 30.2 µM | 11.9 µM | 24.9 µM | 9.27 µM | > 100 µM | 18.3 µM | 10.4 µM | 59.8 µM | 40.5 µM
